Results published in US7691889B2, “Antimycobacterial compounds” (Lupin Limited, priority 2002, dated 2010).
Converted amounts (≈) assume the structure as drawn.

How the values were obtained:
[1] = system: M. tuberculosis clinical isolates, sensitive; assay: microbe, parasite or virus in culture; assay type: cell-based, Mycobacterium tuberculosis; details: Table I; agar dilution
[2] = system: M. tuberculosis 27294; assay: In vitro agar dilution assay (MIC), reference strain; assay type: cell-based, Mycobacterium tuberculosis; details: for MIC against M. tuberculosis 27294: Middlebrook 7H10

| SMILES | MIC against Clinical isolates Sensitive [1] | MIC against M. tuberculosis 27294 [2] [µg/mL] | MIC ([2]; Mycobacterium tuberculosis, 27294, Middlebrook 7H10, read-out: MIC against M. tuberculosis 27294) [µg/mL] |
| --- | --- | --- | --- |
| O=C(CCC(=O)c1ccccc1)NC[C@H]1CN(c2ccc(N3CCOCC3)c(F)c2)C(=O)O1 [Compound 1, (S)-N-[[3-(3-fluoro-4-morpholinylphenyl)-2-oxo-5-oxazolidinyl]methyl]-4-oxo-4-phenylbutanamide] | 4 to 16 µg/mL | 16 (≈ 35.1 µM) |  |
| Cc1ccc(C(=O)CCC(=O)NC[C@H]2CN(c3ccc(N4CCOCC4)c(F)c3)C(=O)O2)cc1 [Compound 2, (S)-N-[[3-(3-fluoro-4-morpholinylphenyl)-2-oxo-5-oxazolidinyl]methyl]-4-(4-methylphenyl)-4-oxobutanamide] | 8 µg/mL (≈ 17 µM) | 8 (≈ 17 µM) |  |
| O=C(CCC(=O)c1ccccc1)NC[C@H]1CN(c2ccc(N3CCSCC3)c(F)c2)C(=O)O1 [Compound 8, (S)-N-[[3-(3-fluoro-4-thiomorpholinylphenyl)-2-oxo-5-oxazolidinyl]methyl]-4-oxo-4-phenylbutanamide] | .5 to 2 µg/mL | 2 (≈ 4.24 µM) |  |
| COc1ccc(C(=O)CCC(=O)NC[C@H]2CN(c3ccc(N4CCOCC4)c(F)c3)C(=O)O2)cc1 [Compound 13, (S)-N-[[3-(3-fluoro-4-morpholinylphenyl)-2-oxo-5-oxazolidinyl]methyl]-4-(4-methoxyphenyl)-4-oxobutanamide] | 2 µg/mL (≈ 4.12 µM) | 2 (≈ 4.12 µM) |  |
| O=C(CCC(=O)c1ccc(Cl)cc1)NC[C@H]1CN(c2ccc(N3CCOCC3)c(F)c2)C(=O)O1 [Compound 14, (S)-N-[[3-(3-fluoro-4-morpholinylphenyl)-2-oxo-5-oxazolidinyl]methyl]-4-(4-chlorophenyl)-4-oxobutanamide] | 0.25 to 0.5 µg/mL | 0.25 (≈ 0.51 µM) |  |
| Cc1ccc(C(=S)CCC(=O)NC[C@H]2CN(c3ccc(N4CCOCC4)c(F)c3)C(=O)O2)cc1 [Compound 15, (S)-N-[[3-(3-fluoro-4-morpholinylphenyl)-2-oxo-5-oxazolidinyl]methyl]-4-(4-methylphenyl)-4-thiooxobutanamide] | >16 µg/mL | >16 |  |
| O=C(CCC(=O)c1ccc2ccccc2c1)NC[C@H]1CN(c2ccc(N3CCOCC3)c(F)c2)C(=O)O1 [Compound 16, (S)-N-[[3-(3-fluoro-4-morpholinylphenyl)-2-oxo-5-oxazolidinyl]methyl]-4-(4-2-naphthyl)-4-oxobutanamide] | 0.5 µg/mL (≈ 0.989 µM) | 0.5 (≈ 0.989 µM) |  |
| CC(C)Cc1ccc(C(=O)CCC(=O)NC[C@H]2CN(c3ccc(N4CCOCC4)c(F)c3)C(=O)O2)cc1 [Compound 17] | 1.0 µg/mL (≈ 1.95 µM) | 0.5 (≈ 0.977 µM) |  |
| O=C(CCC(=O)c1ccc(F)cc1F)NC[C@H]1CN(c2ccc(-c3nc[nH]n3)c(F)c2)C(=O)O1 [Compound 51, (S)-N-[[3-(3-fluoro-4-(1,2,4-triazolyl)phenyl)-2-oxo-5-oxazolidinyl]methyl]-4-(2,4-difluorophenyl)-4-oxobutanamide] |  |  | 8 (≈ 16.9 µM) |
| O=C(CCC(=O)c1ccc2ccccc2c1)NC[C@H]1CN(c2ccc(N3CCCC3)c(F)c2)C(=O)O1 [Compound 57, (S)-N-[[3-(3-fluoro-4-pyrrolidinylphenyl)-2-oxo-5-oxazolidinyl]methyl]-4-(2-naphthyl)-4-oxobutanamide] |  | 16 (≈ 32.7 µM) |  |
| CCCc1ccc(C(=O)CCC(=O)NC[C@H]2CN(c3ccc(N4CCCC4)c(F)c3)C(=O)O2)c(C)c1 [Compound 58, (S)-N-[[3-(3-fluoro-4-pyrrolidinylphenyl)-2-oxo-5-oxazolidinyl]methyl]-4-(2′-methyl-4-propylphenyl)-4-oxobutanamide] |  | 8 (≈ 16.1 µM) |  |
